Results published in patent US7008940B1, “Dihydrobenzofuran derivatives, process for the preparing thereof and agents” (Takeda Pharmaceutical Company Limited, priority 1999, dated 2006).
Where a name gives a salt, the structure may show the parent alone.

System: lipid peroxidation in rat cerebral cortical homogeneates
Assay: Inhibitory effect on lipid peroxidation in rat cerebral cortical homogenates (thiobarbituric acid method)
Type: biochemical
Conditions: lipoperoxide production in Jcl. Wistar rat cerebral cortex homogenate supernatant, 37° C. for 30 minutes, absorbance at 532 nm, vs DMSO-added group
Method: Inhibitory effect on lipid peroxidation in rat cerebral cortical homogeneates and oral administration to mouse.
Quantitative determination of lipoperoxide produced in brain homogenate was performed according to the method of Stocks et al. (Clin. Sci. Mol. Med. 47–215(1974)). As animals, brains of Jcl. Wistar male rats, 10–13 weeks age, were used. Rat cerebral cortices were obtained after decapitation, homogenized in an ice-cooled phosphate saline buffer (50 mM Ph 7.4) (Nichion Microhomogenizer, S-310E), centrifuged at 10,000 g for 10 minutes (Hitachi CF15D type, RT15A6 Anglerotor), and the supernatant was used in a test. This supernatant was diluted 3-fold with the same buffer. To this 1 mL were added 10 μL of test drugs dissolved in dimethyl sulfoxide (DMSO) to the final concentration of 0.0125, 0.025, 0.05, 0.10, 0.20, 0.40, 0.80 and 1.60 μM, respectively, which was incubated at 37° C. for 30 minutes. The reaction was stopped by addition of 200 μL of 35% perchloric acid, and centrifuged at 13,000 g for 10 minutes. To 1 mL of this supernatant was added 0.5 mL of 2-thiobarbituric acid (500 mg/100 mL) dissolved in 50% acetic acid, heated to boil at 95° C. for 15 minutes, which was determined by the absorbance at 532 nm. […]

Structure (SMILES) | IC50
Cc1c(C)c2c(c3c1NC(C)(C)C3)CC(C)(C)O2 [Example 3, 1,6,7,8-Tetrahydro-2,2,4,5,7,7-hexamethyl-2H-furo [3,2-e]indole oxalate] | 127 nM
Cc1c(C)c2c(c3c1NC(C)(C)C3)CC(C)(CN1CCC(NC(c3ccccc3)c3ccccc3)CC1)O2 (centres unmarked) [Example 11, N-(Diphenylmethyl)-1-[(1,6,7,8-tetrahydro-2,4,5,7,7-pentamethyl-2H-furo[3,2-e]indol-2-yl)methyl]-4-piperidineamine dihydrochloride] | 57 nM
